Read-outs that look alike come from different tables or passages of the source.
Assays:
[1] = tested on: Key Grass and Sedge Weeds as well as Grass Crops; assay: Post-emergent Test II herbicidal activity (Table 6); type: in vivo; conditions: post-emergence, 336 h; for pest or weed control at 70 g/ha: 70 g ai/ha; for pest or weed control at 140 g/ha: 140 g ai/ha
Procedure, shortened: (§1)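 Percent injury, 0 (none) to 100 (complete kill), was judged visually 14 d after spraying young plants at the first or second true leaf stage with compound in an acetone/DMSO aqueous carrier at 187 L/ha. Plants were kept in a greenhouse at 23–29 °C by day.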

[2] = tested on: Key Broadleaf Weed and Crop Species; assay: Post-emergent Test II herbicidal activity (Table 5); type: in vivo; conditions: post-emergence, 336 h, 14 days after application; for pest or weed control at 70 g/ha: application rate 70 g ai/ha; for pest or weed control at 140 g/ha: application rate 140 g ai/ha
Procedure, shortened: as §1

[3] = CYPES: yellow nutsedge (Cyperus esculentus), read-out: Visual Growth Reduction (%) 14 Days After Application, CYPES
[4] = DIGSA: crabgrass (Digitaria sanguinalis), read-out: Visual Growth Reduction (%) 14 Days After Application, DIGSA
[5] = ECHCG: barnyardgrass (Echinochloa crus-galli), read-out: Visual Growth Reduction (%) 14 Days After Application, ECHCG
[6] = ORYSA: rice (Oryza sativa), crop, read-out: Visual Growth Reduction (%) 14 Days After Application, ORYSA
[7] = SETFA: giant foxtail (Setaria faberi), read-out: Visual Growth Reduction (%) 14 Days After Application, SETFA
[8] = SORVU: grain sorghum (Sorghum vulgare), read-out: Visual Growth Reduction (%) 14 Days After Application, SORVU
[9] = TRZSS (wheat, Triticum aestivum), crop, read-out: Visual Growth Reduction (%) 14 Days After Application, TRZSS
[10] = ZEAMX: maize, corn (Zea mays), crop, read-out: Visual Growth Reduction (%) 14 Days After Application, ZEAMX
[11] = ABUTH: velvetleaf (Abutilon theophrasti), read-out: Visual Growth Reduction (%) 14 Days After Application, ABUTH
[12] = AMARE: redroot pigweed (Amaranthus retroflexus), read-out: Visual Growth Reduction (%) 14 Days After Application, AMARE
[13] = BRSNN: oilseed-rape, canola (Brassica napus), read-out: Visual Growth Reduction (%) 14 Days After Application, BRSNN
[14] = CHEAL: lambsquarters (Chenopodium album), read-out: Visual Growth Reduction (%) 14 Days After Application, CHEAL
[15] = EPHHL: wild poinsettia (Euphorbia heterophylla), read-out: Visual Growth Reduction (%) 14 Days After Application, EPHHL
[16] = HELAN: sunflower (Helianthus annuus), read-out: Visual Growth Reduction (%) 14 Days After Application, HELAN
[17] = VIOTR: wild pansy (Viola tricolor), read-out: Visual Growth Reduction (%) 14 Days After Application, VIOTR

`COC(=O)c1nc(-c2ccc(I)c(F)c2F)nc(N)c1OC` [Compound 24, methyl 6-amino-2-(2,3-difluoro-4-iodophenyl)-5-methoxypyrimidine-4-carboxylate] gave a pest or weed control at 70 g/ha [1, 3] of 95 to 100%, a pest or weed control at 140 g/ha [1, 3] of 95 to 100% and a pest or weed control at 70 g/ha [1, 4] of 45 to 59%. For the same compound, the pest or weed control at 140 g/ha [1, 4] was 60 to 74%, the pest or weed control at 70 g/ha [1, 5] was 95 to 100% and the pest or weed control at 140 g/ha [1, 5] was 95 to 100%. The pest or weed control at 70 g/ha [1, 6] was 0 to 29%, the pest or weed control at 140 g/ha [1, 6] was 0 to 29% and the pest or weed control at 70 g/ha [1, 7] was 60 to 74%. For the same compound, the pest or weed control at 140 g/ha [1, 7] was 85 to 94%, the pest or weed control at 70 g/ha [1, 8] was 85 to 94% and the pest or weed control at 140 g/ha [1, 8] was 85 to 94%. It also gave a pest or weed control at 70 g/ha [1, 9] of 0 to 29%, a pest or weed control at 140 g/ha [1, 9] of 30 to 44% and a pest or weed control at 70 g/ha [1, 10] of 95 to 100%. For the same compound, the pest or weed control at 140 g/ha [1, 10] was 95 to 100%, the pest or weed control at 70 g/ha [2, 11] was 95 to 100% and the pest or weed control at 140 g/ha [2, 11] was 95 to 100%. It also gave a pest or weed control at 70 g/ha [2, 12] of 75 to 84%, a pest or weed control at 140 g/ha [2, 12] of 85 to 94% and a pest or weed control at 70 g/ha [2, 13] of 95 to 100%. It also gave a pest or weed control at 140 g/ha [2, 13] of 95 to 100%, a pest or weed control at 70 g/ha [2, 14] of 95 to 100% and a pest or weed control at 140 g/ha [2, 14] of 95 to 100%. The pest or weed control at 70 g/ha [2, 15] was 95 to 100%, the pest or weed control at 140 g/ha [2, 15] was 95 to 100% and the pest or weed control at 70 g/ha [2, 16] was 85 to 94%. For the same compound, the pest or weed control at 140 g/ha [2, 16] was 95 to 100%, the pest or weed control at 70 g/ha [2, 17] was 45 to 59% and the pest or weed control at 140 g/ha [2, 17] was 95 to 100%. It also gave a melting point of 169 to 170 °C.

From patent US9113629B2, “4-amino-6-(4-substituted-phenyl)-picolinates and 6-amino-2-(4-substituted-phenyl)-pyrimidine-4-carboxylates and their use as herbicides” (DOW AGROSCIENCES LLC, priority 2013, dated 2015)
